Source: patent publication US20220279826A1, “OFF-FLAVOR SUPPRESSING AGENT” (AJINOMOTO CO., INC., priority 2019, published 2022)

Columns and labels:
[1] = Sensory evaluation in Japanese noodle soup base solution with potassium chloride (0.1 g) (Experimental Example 4); conditions: for off-taste suppressing effect: Japanese noodle soup base solution, potassium chloride 0.1 g; for intensity of off-tastes (bitter taste, metallic taste, harsh taste, astringent taste) derived from potassium chloride: base solution of Table 18
Experimental: Potassium chloride (0.1 g) was added to a commercially available Japanese noodle soup base (manufactured by Yamaki Co., Ltd.) (11.1 g), and dissolved by adding hot water ([…]) to prepare a base solution.
Each compound shown in the following Table 18 was added to the base solution prepared above so as to achieve the concentration (addition concentration) shown in the following Table 18 to prepare each evaluation sample.
(§1) Based on the following evaluation criteria, a panel of two experts determined by consensus the intensity of off-tastes (bitter taste, metallic taste, harsh taste, astringent taste) derived from potassium chloride in each evaluation sample, by reference to each potassium chloride aqueous solution adjusted to 0.1 wt % or 0.05 wt %.

[2] = Sensory evaluation in Japanese noodle soup base solution with potassium chloride (0.2 g) (Experimental Example 5); conditions: for off-taste suppressing effect: Japanese noodle soup base solution, potassium chloride 0.2 g; for intensity of off-tastes (bitter taste, metallic taste, harsh taste, astringent taste) derived from potassium chloride: base solution of Table 19
Experimental: Potassium chloride (0.2 g) was added to a commercially available Japanese noodle soup base (manufactured by Yamaki Co., Ltd.) (11.1 g), and dissolved by adding hot water (88.7 g) to prepare a base solution.
Each compound shown in the following Table 19 was added to the base solution prepared above so as to achieve the concentration (addition concentration) shown in the following Table 19 to prepare each evaluation sample.
as §1, with “0.2 wt %, 0.15” for “0.1”, “0.1” for “0.05”

[3] = Sensory evaluation in ramen noodle soup solution with potassium chloride (Experimental Example 3); conditions: for off-taste suppressing effect: Ramen noodle soup solution with 0.8 wt % potassium chloride; for intensity of off-tastes (bitter taste, metallic taste, harsh taste, astringent taste) derived from potassium chloride: base solutions of Tables 15 to 17 (ramen noodle soup, chicken broth, potage)
Experimental: (§2) As shown in the following (1) to (3) below, 0.8 wt % of potassium chloride was added to a food base powder corresponding to 0.5 wt % of sodium chloride to prepare each base solution having an off-taste derived from potassium chloride.
Potassium chloride (0.8 g) was added to a soup powder (1.1 g) of a commercially available instant ramen noodle (manufactured by SANYO FOODS Co., Ltd., trade name “Sapporo Ichiban Shouyuaji”), hot water (98.1 g) was added to dissolve the mixture to prepare a base solution (ramen noodle soup solution).
(§3) Each compound shown in the following Tables 15 to 17 was added to each base solution (ramen noodle soup solution, chicken broth solution, potage solution) so as to achieve the concentration (addition concentration) shown in the following Tables 15 to 17 to prepare each evaluation sample.
(§4) By a method similar to that in Experimental Example 1, a panel of two experts determined the intensity of off-tastes (bitter taste, metallic taste, harsh taste, astringent taste) derived from potassium chloride in each evaluation sample.

[4] = Sensory evaluation in potage solution with potassium chloride (Experimental Example 3); conditions: Potage solution with 0.8 wt % potassium chloride
Experimental: as §2
Potassium chloride (0.8 g) was added to a commercially available powdered instant potage (manufactured by Ajinomoto Co., Inc., trade name “Knorr (registered trade mark) Cup Soup Potage”) (7.1 g), hot water (92.1 g) was added to dissolve the mixture to prepare a base solution (potage solution).
as §3, §4

[5] = addition concentration 1000 weight ppb (1000 weight ppm with respect to potassium chloride)
[6] = addition concentration 2000 weight ppb (2000 weight ppm with respect to potassium chloride)
[7] = addition concentration 100 weight ppb (50 weight ppm with respect to potassium chloride)
[8] = addition concentration 100 ppb (12.5 weight ppm with respect to potassium chloride)
[9] = addition concentration 10 ppb (1.25 weight ppm with respect to potassium chloride)
[10] = addition concentration 1 ppm (125 weight ppm with respect to potassium chloride)

**Q.** Which results are given for CC(=O)c1ccc(C)o1 [2-acetyl-5-methylfuran]?
**A.** off-taste suppressing effect [1, 5]: + (intensity of the same level as potassium chloride aqueous solution with potassium chloride concentration of not less than 0.05 wt % and less than 0.1 wt %); off-taste suppressing effect [1, 6]: ++ (intensity of the same level as potassium chloride aqueous solution with potassium chloride concentration of less than 0.05 wt %); intensity of off-tastes (bitter taste, metallic taste, harsh taste, astringent taste) derived from potassium chloride [1]: decreased

**Q.** With CC(=O)c1ccco1 [2-acetylfuran] as the compound, how does the off-taste suppressing effect [2, 7] read?
**A.** ++ (intensity of the same level as potassium chloride aqueous solution with potassium chloride concentration of not less than 0.1 wt % and less than 0.15 wt %)

**Q.** What about the “intensity of off-tastes (bitter taste, metallic taste, harsh taste, astringent taste) derived from potassium chloride” value (“intensity of off-tastes” below) [2] of the same compound?
**A.** decreased

**Q.** What about the off-taste suppressing effect [3, 8] of the same compound?
**A.** +++ (intensity of the same level as potassium chloride aqueous solution with potassium chloride concentration of not less than 0.65 wt % and less than 0.7 wt %)

**Q.** What about the “intensity of off-tastes” value [3] of the same compound?
**A.** decreased

**Q.** And the off-taste suppressing effect [4, 8]?
**A.** ++ (intensity of the same level as potassium chloride aqueous solution with potassium chloride concentration of not less than 0.7 wt % and less than 0.75 wt %)

**Q.** What does the source list for CC1OCCC1=O (stereo not shown) [2-methyltetrahydrofuran-3-one]?
**A.** off-taste suppressing effect [2, 7]: + (intensity of the same level as potassium chloride aqueous solution with potassium chloride concentration of not less than 0.15 wt % and less than 0.2 wt %); intensity of off-tastes (bitter taste, metallic taste, harsh taste, astringent taste) derived from potassium chloride [2]: decreased

**Q.** What does the source list for CC1=C(O)C(=O)CC1 [cyclotene]?
**A.** off-taste suppressing effect ([2]; addition concentration 25 weight ppb (12.5 weight ppm with respect to potassium chloride)): +++ (intensity of the same level as potassium chloride aqueous solution with potassium chloride concentration of less than 0.1 wt %); intensity of off-tastes (bitter taste, metallic taste, harsh taste, astringent taste) derived from potassium chloride [2]: decreased; off-taste suppressing effect [3, 9]: +++ (intensity of the same level as potassium chloride aqueous solution with potassium chloride concentration of not less than 0.65 wt % and less than 0.7 wt %); intensity of off-tastes (bitter taste, metallic taste, harsh taste, astringent taste) derived from potassium chloride [3]: decreased; off-taste suppressing effect [4, 9]: +++ (intensity of the same level as potassium chloride aqueous solution with potassium chloride concentration of not less than 0.65 wt % and less than 0.7 wt %)

**Q.** With O=Cc1ccco1 [furfural, Furfural] as the compound, how does the off-taste suppressing effect ([2]; addition concentration 50 weight ppb (25 weight ppm with respect to potassium chloride)) read?
**A.** +++ (intensity of the same level as potassium chloride aqueous solution with potassium chloride concentration of less than 0.1 wt %)

**Q.** What about the “intensity of off-tastes” value [2] of the same compound?
**A.** decreased

**Q.** What about the off-taste suppressing effect [3, 9] of the same compound?
**A.** ++ (intensity of the same level as potassium chloride aqueous solution with potassium chloride concentration of not less than 0.7 wt % and less than 0.75 wt %)

**Q.** What about the “intensity of off-tastes” value [3] of the same compound?
**A.** decreased

**Q.** What about the off-taste suppressing effect [4, 9] of the same compound?
**A.** ++ (intensity of the same level as potassium chloride aqueous solution with potassium chloride concentration of not less than 0.7 wt % and less than 0.75 wt %)

**Q.** Which off-taste suppressing effect ([2]; addition concentration 1000 weight ppb (500 weight ppm with respect to potassium chloride)) does the source give for CCC(=O)O [propionic acid] here?
**A.** ++ (intensity of the same level as potassium chloride aqueous solution with potassium chloride concentration of not less than 0.1 wt % and less than 0.15 wt %)

**Q.** And the “intensity of off-tastes” value [2]?
**A.** decreased

**Q.** What about the off-taste suppressing effect [3, 10] of the same compound?
**A.** ++ (intensity of the same level as potassium chloride aqueous solution with potassium chloride concentration of not less than 0.7 wt % and less than 0.75 wt %)

**Q.** What about the “intensity of off-tastes” value [3] of the same compound?
**A.** decreased

**Q.** What about the off-taste suppressing effect [1, 5] of the same compound?
**A.** + (intensity of the same level as potassium chloride aqueous solution with potassium chloride concentration of not less than 0.05 wt % and less than 0.1 wt %)

**Q.** And the off-taste suppressing effect [1, 6]?
**A.** ++ (intensity of the same level as potassium chloride aqueous solution with potassium chloride concentration of less than 0.05 wt %)

**Q.** What about the “intensity of off-tastes” value [1] of the same compound?
**A.** decreased

**Q.** What about the off-taste suppressing effect [4, 10] of the same compound?
**A.** ++ (intensity of the same level as potassium chloride aqueous solution with potassium chloride concentration of not less than 0.7 wt % and less than 0.75 wt %)
